What was measured:
Format in all cases: in vivo
rat AA model (大鼠AA模型) = assay: rat AA model (FCA-induced primary inflammation); conditions: for 6 h swelling degree / 12 h swelling degree / 18 h swelling degree / 24 h swelling degree: intragastric from 3 days before FCA; for 6 h swelling degree: 6 h after FCA, control 0.49±0.06; for 12 h swelling degree: 12 h after FCA, control 0.54±0.07; for 18 h swelling degree: 18 h after FCA, control 0.64±0.07; for 24 h swelling degree: 24 h after FCA, control 0.50±0.06
[1] = system: xylene-induced mouse ear swelling (二甲苯所致小鼠耳肿胀模型); assay: xylene-induced ear swelling model in mice; conditions: intragastric
[2] = system: carrageenan-induced rat paw swelling (角叉菜胶致大鼠足肿胀模型); assay: carrageenan-induced paw swelling model in rats; conditions: intragastric; for 1 h swelling degree / 3 h swelling degree / 5 h swelling degree / 7 h swelling degree: once daily for 3 days; for 1 h swelling degree: 1 h after carrageenan, control 0.41±0.12; for 3 h swelling degree: 3 h after carrageenan, control 0.83±0.13; for 5 h swelling degree: 5 h after carrageenan, control 0.70±0.12; for 7 h swelling degree: 7 h after carrageenan, control 0.63±0.11
[3] = 25, 50, 100 mg/kg, intragastric

Compound: 28-O-β-D-葡萄糖基化远志皂苷
- 6 h swelling degree (rat AA model (大鼠AA模型); 25 mg/kg (low dose)): 0.45 ± 0.05 mL
- 12 h swelling degree (rat AA model (大鼠AA模型); 25 mg/kg (low dose)): 0.51 ± 0.16 mL
- 18 h swelling degree (rat AA model (大鼠AA模型); 25 mg/kg (low dose)): 0.61 ± 0.13 mL
- 24 h swelling degree (rat AA model (大鼠AA模型); 25 mg/kg (low dose)): 0.46 ± 0.15 mL
- 6 h swelling degree (rat AA model (大鼠AA模型); 50 mg/kg (medium dose)): 0.28 ± 0.05 mL
- 12 h swelling degree (rat AA model (大鼠AA模型); 50 mg/kg (medium dose)): 0.30 ± 0.08 mL
- 18 h swelling degree (rat AA model (大鼠AA模型); 50 mg/kg (medium dose)): 0.33 ± 0.06 mL
- 24 h swelling degree (rat AA model (大鼠AA模型); 50 mg/kg (medium dose)): 0.27 ± 0.07 mL
- 6 h swelling degree (rat AA model (大鼠AA模型); 100 mg/kg (high dose)): 0.15 ± 0.06 mL
- 12 h swelling degree (rat AA model (大鼠AA模型); 100 mg/kg (high dose)): 0.19 ± 0.08 mL
- 18 h swelling degree (rat AA model (大鼠AA模型); 100 mg/kg (high dose)): 0.30 ± 0.07 mL
- 24 h swelling degree (rat AA model (大鼠AA模型); 100 mg/kg (high dose)): 0.25 ± 0.06 mL
- concentration dependence of inhibition of primary inflammation in AA rats (rat AA model (大鼠AA模型); [3]): 具有一定的浓度依赖性
- inhibition of FCA-induced primary inflammation in AA rats (rat AA model (大鼠AA模型); [3]): 有明显的抑制作用
- inhibition rate ([1]; 25 mg/kg (low dose), once daily for 3 days, ear swelling vs control, P<0.05): 6.5%
- inhibition rate ([1]; 50 mg/kg (medium dose), once daily for 3 days, ear swelling vs control, P<0.01): 39.1%
- inhibition rate ([1]; 100 mg/kg (high dose), once daily for 3 days, ear swelling vs control, P<0.01): 48.4%
- inhibition of xylene-induced acute inflammation of mouse auricle ([1]; 25, 50, 100 mg/kg): 能抑制
- 1 h swelling degree ([2]; 25 mg/kg (low dose)): 0.33 ± 0.05 mL
- 3 h swelling degree ([2]; 25 mg/kg (low dose)): 0.64 ± 0.16 mL
- 5 h swelling degree ([2]; 25 mg/kg (low dose)): 0.48 ± 0.13 mL
- 7 h swelling degree ([2]; 25 mg/kg (low dose)): 0.33 ± 0.07 mL
- 1 h swelling degree ([2]; 50 mg/kg (medium dose)): 0.17 ± 0.05 mL
- 3 h swelling degree ([2]; 50 mg/kg (medium dose)): 0.45 ± 0.12 mL
- 5 h swelling degree ([2]; 50 mg/kg (medium dose)): 0.39 ± 0.07 mL
- 7 h swelling degree ([2]; 50 mg/kg (medium dose)): 0.19 ± 0.05 mL
- 1 h swelling degree ([2]; 100 mg/kg (high dose)): 0.11 ± 0.05 mL
- 3 h swelling degree ([2]; 100 mg/kg (high dose)): 0.37 ± 0.13 mL
- 5 h swelling degree ([2]; 100 mg/kg (high dose)): 0.31 ± 0.08 mL
- 7 h swelling degree ([2]; 100 mg/kg (high dose)): 0.16 ± 0.09 mL
- concentration dependence of inhibition of rat paw swelling ([2]; 25, 50, 100 mg/kg): 具有一定的浓度依赖性
- inhibition of carrageenan-induced rat paw swelling ([2]; 25, 50, 100 mg/kg): 有抑制作用

Compound: COc1ccc2cc([C@H](C)C(=O)O)ccc2c1 [萘普生, reference compound]
- 6 h swelling degree (rat AA model (大鼠AA模型); 30 mg/kg): 0.16 ± 0.09 mL
- 12 h swelling degree (rat AA model (大鼠AA模型); 30 mg/kg): 0.22 ± 0.07 mL
- 18 h swelling degree (rat AA model (大鼠AA模型); 30 mg/kg): 0.29 ± 0.08 mL
- 24 h swelling degree (rat AA model (大鼠AA模型); 30 mg/kg): 0.28 ± 0.06 mL
- inhibition at 45 mg/kg ([1]; Mus musculus, po, 72 h, 45 mg/kg, once daily for 3 days, ear swelling vs control, P<0.01, read-out: inhibition rate): 45.7%
- 1 h swelling degree ([2]; 30 mg/kg): 0.08 ± 0.07 mL
- 3 h swelling degree ([2]; 30 mg/kg): 0.21 ± 0.05 mL
- 5 h swelling degree ([2]; 30 mg/kg): 0.13 ± 0.08 mL
- 7 h swelling degree ([2]; 30 mg/kg): 0.12 ± 0.07 mL

— patent CN103739655A, “28-O-β-D-葡萄糖基化远志皂苷、其制备方法及用途” (Individual, priority 2013, dated 2014)
